Reference: patent US20240261359A1, “PHARMACEUTICAL COMPOSITION FOR USE PREVENTING AND CURING RESPIRATORY DISEASES IN WINTER” (Tianjin University of Traditional Chinese Medicine, priority 2020, published 2024)

How the values were obtained:
[1] = system: ARE; experiment: ARE luciferase reporter gene activity in transfected 293T cells; format: cell-based; settings: tBHQ 10 μM, 6 h; relative luciferase activity L/S; x ± SD, n = 18; control 0.76
Procedure: (§1) The 293T cells in the logarithmic growth phase were taken and inoculated into a 96-well cell culture plate at a density of 2×10^5 cell/mL, and after growth along the walls to 70-80%, a PEI (1 mg/ml) transfecting agent was used to simultaneously transfect them with ARE and NF-κB luciferase reporter plasmids pGL4.37, pGL4.32 (100 ng/well) and a renilla luciferase reported plasmid pGL4.75 (10 ng/well), and they were cultured for 24 h.
(§2) After 24-h culture, the cells transfected with the ARE luciferase reporter plasmid pGL4.37 are added with tBHQ (10 μM) and safety concentrations of the sample solutions of the individual inventive pharmaceutical composition groups, and by setting a control group, and they were cultured 6 h; the cells transfected with NF-kB luciferase reporter plasmid pGL4.32 were respectively added with dexamethasone (10 μM) diluted by a TNF-α complete culture medium, and safety concentrations of the sample solutions of the individual inventive pharmaceutical composition groups, and by setting a control group, and a model group, and they were cultured for 6 h. The supernatant was discarded, and the cells were rinsed with PBS. After splitting, they were detected by using a Dual-Luciferase detection system. Each set of experiments were configured with 6 compound wells, with 3 repetitions. […]

[2] = system: NF-κB; format: cell-based; settings: dexamethasone 10 μM with TNF-α, 6 h; L/S; x ± SD, n = 18; model 4641.34, control 17.46
Procedure: as §1, §2

[3] = system: rats suffered from acute pharyngitis caused by Staphylococcus aureus; experiment: Appearance behavior scoring and thymus weight, rat acute pharyngitis model caused by Staphylococcus aureus; format: in vivo, SD rats; settings: ig, composition 3.5 g/kg, amoxicillin 0.36 g/kg, x ± s, n = 7
Procedure: Formulations of medicinal solutions: before the test, distilled water was used to formulate a medicinal solution with a concentration of 0.35 g/ml, which was intragastrically administrated in 1 ml/100 g body weight/time, 2 times/day, and on 7th day after pre-administrations, modelling was started and the intragastric administration was continued for 5 days.
On 1st day, at 1 h after Staphylococcus aureus infection, the positive medicinal group was intragastrically administrated at a dose of 0.36 g/kg (equivalently equal to the clinical dose of a human), 1 time/day for 5 consecutive days.
With scoring standard (from Standards for Preparation of Animal Models Suffered from Acute Pharyngitis, enacted by Traditional Chinese medicine Experimental Pharmacology Professional Committee of Traditional Chinese Medicine Institute, Traditional Chinese Medicine Pharmacology and Clinics 2018; 34 (1)), according to weights, mobility, fur color and gloss of rats, they were classified into 4 grades, as shown in the following Table 4.

[4] = system: rats suffered from acute pharyngitis caused by Staphylococcus aureus; experiment: Scoring of pharyngeal lesions, rat acute pharyngitis model; format: in vivo, SD rats; parameters: key to Pharyngeal inflammatory response grade of most animals: −: pharyngeal tissues were in light red color, and they had moist and glossy surfaces, and no secreted substances, no congestion, no swelling and other pathological phenomena; +: the mucosa in the pharynx had poor gloss, and there were a small amount of secreted substances, and slight congestions and swelling; ++: the mucosa in the pharynx was in a dark red color and poor in the gloss, and secreted substances exist therein, accompanying by moderate congestions and swelling and other phenomena; +++: the mucosa in the pharynx exhibited a dark red color, increased secretion of mucus, and evident congestion and swelling
[5] = system: rats suffered from acute pharyngitis caused by Staphylococcus aureus; experiment: Peripheral white blood cell count and classification, rat acute pharyngitis model; format: in vivo, SD rats; settings: composition 3.5 g/kg, amoxicillin 0.36 g/kg, x ± s, n = 7
Description: Before each group of animals were scarified, blood was taken by cutting tails and smeared on plates to conduct routine blood examinations about number of white blood cells, lymphocyte percentages and neutrophils percentages.

[6] = system: rats suffered from acute pharyngitis caused by Staphylococcus aureus; experiment: Pathological morphology of pharyngeal tissues (HE staining), rat acute pharyngitis model; format: in vivo, SD rats; settings: HE sections, FIG. 2A-2D
Procedure: Material taking: rats were anesthetized and pharyngeal tissues were taken and fixed in 4% paraformaldehyde for more than 24 h. The tissues were taken from the fixing solution and in a fume hood, the tissues at the target region were trimmed with a surgical knife. The trimmed tissues and the corresponding tags were placed in a dehydration box.
Dehydration: the dehydration was conducted by placing the dehydration box in a hanging basket, and in a dehydration machine, the dehydration was conducted with alcohols with gradient concentrations in order. 75% alcohol 1 h-85% alcohol 1 h-90% alcohol 1 h-95% alcohol 1 h-anhydrous ethanol I 30 min-anhydrous ethanol II 30 min-alcohol benzene 5-10 min-xylene I 5-10 min-xylene II 5-10 min-wax I 1 h-wax II 1 h-wax III 1 h.
Embedding: the tissues immersed with wax were embedded in an embedding machine. The molten wax was placed in an embedding frame first, and before it was solidified, the tissues were taken from the dehydration box and placed in the embedding frame according to requirements on embedded faces and corresponding tags were attached. They were cooled on a freezing table at −20° C., and after wax solidification, the wax block was taken from the embedding frame and trimmed.
Slicing: the trimmed wax block was sliced on a paraffin slicing machine, in a thickness of 4 μm. […]

[7] = system: rats suffered from acute pharyngitis caused by Staphylococcus aureus; experiment: Inflammatory factors in rat serum by ELISA, rat acute pharyngitis model; format: in vivo, SD rats; settings: composition 3.5 g/kg, amoxicillin 0.36 g/kg, x ± s, n = 7
Procedure: Rates were anesthetized. Blood was taken from abdominal aorta and injected into a procoagulant tube, standing for 45 min at room temperature, and it was centrifuged at 3500 rpm for 10 min. The supernatant was suction taken into a sterile EP tube and stored at −80° C. Before measurements, the samples were re-thawed at room temperature, and the IL-1β, IL-6 and TNF-α levels in serum were measured by enzyme-linked immunosorbent assay (ELISA). The operations were carried out according to the instruction of the kit, and each index was detected by an enzyme-labelled meter at the absorbance 450 nm.

[8] = of 7 rats, composition 3.5 g/kg, amoxicillin 0.36 g/kg

How did the “ARE luciferase activity of 293T cells” value [1] turn out when `CC(C)(C)c1cc(O)ccc1O` [tBHQ, Tertiary butylhydroquinone] was run?
The value was 3.55.

With `C[C@@H]1C[C@H]2[C@@H]3CCC4=CC(=O)C=C[C@]4(C)[C@@]3(F)[C@@H](O)C[C@]2(C)[C@@]1(O)C(=O)CO` [Dex, Dexamethasone] as the compound, how does the “NF-κB luciferase activity of 293T cells” value [2] read?
The value was 968.61.

`CC1(C)S[C@@H]2[C@H](NC(=O)[C@H](N)c3ccc(O)cc3)C(=O)N2[C@H]1C(=O)O` [Amoxicillin] was tested. Which “Thymus gland” value [3] did it give?
The value was 0.26 ± 0.11 g.

And the “Fur gloss (appearance behavior score)” value ([3]; index grade 0-3 (Table 4))?
The value was 1.14 ± 0.38.

What about the “Mobility (appearance behavior score)” value ([3]; index grade 0-3 (Table 4)) of the same compound?
Its value is 1.43 ± 0.53.

What about the “Pharyngeal lesions: number of animals in grade +” value [4, 8] of the same compound?
The value was 6.

And the “Pharyngeal lesions: number of animals in grade ++” value [4, 8]?
The value was 1.

And the “Pharyngeal lesions: number of animals in grade +++” value [4, 8]?
Its value is 0.

And the “Pharyngeal lesions: number of animals in grade −” value [4, 8]?
Its value is 0.

And the “Pharyngeal inflammatory response grade of most animals” value ([4]; summary of Table 6)?
The value was “+”.

What about the “L (%), percentages of lymphocytes” value [5] of the same compound?
The value was 76.37 ± 7.42 %.

And the “N (%), percentages of neutrophils” value [5]?
Its value is 19.5 ± 6.77 %.

What about the “WBC (×10^9/L), white cells” value [5] of the same compound?
Its value is 8.17 ± 30^ ×10^9/L.

What about the “Pathological morphology of pharyngeal tissues (inflammatory cell infiltration, mucosa recovery)” value [6] of the same compound?
Its value is “very similar to those in the inventive pharmaceutical composition group”.

And the “IL-1β (pg/mL) in peripheral blood” value [7]?
Its value is 254.04 ± 59.15 pg/mL.

And the “IL-6 (pg/mL) in peripheral blood” value [7]?
Its value is 28.21 ± 8.67 pg/mL.

What about the “TNF-α (pg/mL) in peripheral blood” value [7] of the same compound?
The value was 145.14 ± 30.98 pg/mL.
